Assays:
Details in all cases: 72 h
Caco-2 [1] = assay: cell viability relative to DMSO; higher = less toxic
Calu-3 [2] = assay: as above
HepG2 [3] = assay: as above
U2OS [4] = assay: as above
Vero E6 [5] = assay: as above
Caco-2 [6] = assay: relative viability EC50 (midpoint between 100% and the lowest measured viability); higher = less toxic
Calu-3 [7] = assay: as above
HepG2 [8] = assay: as above
U2OS [9] = assay: as above
Vero E6 [10] = assay: as above
Caco-2 [11] = assay: drug sensitivity score (DSS) for viability; higher = more toxic; extreme values may be limits of the assay
Calu-3 [12] = assay: as above
HepG2 [13] = assay: as above
U2OS [14] = assay: as above
Vero E6 [15] = assay: as above

Compound | cell viability (Caco-2 [1]; 1 nM) | cell viability (Caco-2 [1]; 10 nM) | cell viability (Caco-2 [1]; 100 nM) | cell viability (Caco-2 [1]; 1000 nM) | cell viability (Caco-2 [1]; 10000 nM) | cell viability (Calu-3 [2]; 1 nM) | cell viability (Calu-3 [2]; 10 nM) | cell viability (Calu-3 [2]; 100 nM) | cell viability (Calu-3 [2]; 1000 nM) | cell viability (Calu-3 [2]; 10000 nM) | cell viability (HepG2 [3]; 1 nM) | cell viability (HepG2 [3]; 10 nM) | cell viability (HepG2 [3]; 100 nM) | cell viability (HepG2 [3]; 1000 nM) | cell viability (HepG2 [3]; 10000 nM) | cell viability (U2OS [4]; 1 nM) | cell viability (U2OS [4]; 10 nM) | cell viability (U2OS [4]; 100 nM) | cell viability (U2OS [4]; 1000 nM) | cell viability (U2OS [4]; 10000 nM) | cell viability (Vero E6 [5]; 1 nM) | cell viability (Vero E6 [5]; 10 nM) | cell viability (Vero E6 [5]; 100 nM) | cell viability (Vero E6 [5]; 1000 nM) | cell viability (Vero E6 [5]; 10000 nM) | relative viability EC50 (Caco-2 [6]) | relative viability EC50 (Calu-3 [7]) | relative viability EC50 (HepG2 [8]) | relative viability EC50 (U2OS [9]) | relative viability EC50 (Vero E6 [10]) | drug sensitivity score (Caco-2 [11]) | drug sensitivity score (Calu-3 [12]) | drug sensitivity score (HepG2 [13]) | drug sensitivity score (U2OS [14]) | drug sensitivity score (Vero E6 [15])
O=C(Nc1cc2cc[nH]c2cn1)c1ccccc1 [OAC1] | 102% | 97% | 100% | 85.6% | 77.3% | 99.8% | 96.8% | 103% | 102% | 89.3% | 104% | 116% | 101% | 113% | 80.8% | 105% | 95.8% | 101% | 93.3% | 83.3% | 97.1% | 99.7% | 94.3% | 99.1% | 86.2% | > 10 µM | > 10 µM | > 10 µM | > 10 µM | > 10 µM | 2.3 | 0 | 0.3 | 1 | 0.2
COc1cccc2cc(-c3nc([C@H]4CC[C@H](C(=O)O)CC4)n4ncnc(N)c34)[nH]c12 [OSI-027] | 98.5% | 100% | 86.4% | 56.7% | 26.3% | 92.4% | 100% | 70.6% | 33.7% | 26.3% | 112% | 106% | 102% | 48.8% | 28.4% | 92.5% | 100% | 92.3% | 57.2% | 17.2% | 102% | 103% | 98.3% | 80.1% | 39.7% | 0.603 µM | 0.145 µM | 0.693 µM | 0.903 µM | 1.33 µM | 9.9 | 15.9 | 9.9 | 9.7 | 6.2
CC(C)n1nc(-c2cc3cc(O)ccc3[nH]2)c2c(N)ncnc21 [PP242] | 104% | 88.9% | 80.4% | 41.4% | 31.3% | 107% | 94.2% | 79.6% | 26.5% | 20.1% | 100% | 121% | 90.2% | 50% | 19.8% | 99.2% | 99% | 96% | 56.1% | 16.4% | 107% | 105% | 96.2% | 67.9% | 15.9% | 0.208 µM | 0.203 µM | 0.652 µM | 0.927 µM | 1.26 µM | 13.1 | 16 | 10.8 | 9.8 | 8.7
COc1ccccc1-c1c[nH]c2ncc(-c3cncc(C(=O)N(C)C)c3)cc12 [PPY-A] | 88.4% | 119% | 102% | 106% | 102% | 108% | 96.4% | 95.3% | 115% | 126% | 120% | 96.9% | 92.1% | 114% | 99.7% | 95.4% | 112% | 101% | 101% | 96.4% | 95.4% | 100% | 100% | 101% | 112% | > 10 µM | > 10 µM | > 10 µM | > 10 µM | > 10 µM | 0 | 0 | 0 | 0 | 0
C=CC[N+]1([C@H]2C[C@H]3[C@@H]4CC[C@H]5C[C@H](O)[C@@H](N6CCOCC6)C[C@]5(C)[C@H]4CC[C@]3(C)[C@H]2OC(C)=O)CCCC1 [ROCURONIUM BROMIDE] | 104% | 103% | 107% | 132% | 79.8% | 98.1% | 105% | 107% | 94.9% | 105% | 97.7% | 113% | 108% | 111% | 108% | 106% | 99.3% | 103% | 103% | 108% | 91% | 95.1% | 89.5% | 88.5% | 95.6% | > 10 µM | > 10 µM | > 10 µM | > 10 µM | > 10 µM | 0.2 | 0 | 0 | 0 | 0
N[C@@H](CSS(=O)(=O)O)C(=O)O [S-sulfo-L-cysteine] | 97.9% | 105% | 88.1% | 100% | 94.2% | 97.7% | 92.6% | 94.4% | 95.8% | 95.2% | 108% | 101% | 103% | 94.8% | 94.5% | 94.4% | 102% | 95% | 102% | 98.4% | 98.3% | 96.2% | 103% | 97.5% | 102% | > 10 µM | > 10 µM | > 10 µM | > 10 µM | > 10 µM | 0 | 0 | 0 | 0 | 0
COCCN1CCC(C(=O)NO)(S(=O)(=O)c2ccc(Oc3ccc(OC(F)(F)F)cc3)cc2)CC1 [SD-2590] | 97.8% | 103% | 95.9% | 98.8% | 107% | 93.9% | 96.8% | 96.9% | 98.8% | 88.1% | 95.9% | 93.8% | 93.9% | 89% | 91.6% | 98.2% | 103% | 92.2% | 100% | 98.8% | 97.6% | 94% | 98.7% | 92.2% | 103% | > 10 µM | > 10 µM | > 10 µM | > 10 µM | > 10 µM | 0 | 0.1 | 0 | 0 | 0

Source: the supplement of paper PMC13380429
